Laboratory results reported in ChEMBL document CHEMBL5625273, “Antiproliferative activities through accelerating autophagic flux by basidalin and its analogs in human cancer cells” (Bioorg Med Chem Lett, 2024).
pIC50: −log10 of the molar value. Calls of active or inactive are those of the source. The calls are words filed in the database; no cut-off is given here.

Key:
Format in all cases: functional, cell-based
PANC-1 = test: Antiproliferative activity against human PANC-1 cells by MTT assay
HCT-116 = test: Antiproliferative activity against human HCT-116 cells by MTT assay
SK-MEL-28 = test: Antiproliferative activity against human SK-MEL-28 cells by MTT assay
MCF7 = test: Antiproliferative activity against human MCF7 cells by MTT assay
PC-3 = test: Antiproliferative activity against human PC-3 cells by MTT assay
HT-1080 = test: Antiproliferative activity against human HT-1080 cells by MTT assay
HeLa [1] = test: Antiproliferative activity against human HeLa cells by MTT assay
HeLa [2] = test: Induction of autophagy in human HeLa cells assessed as increase in LC3-II expression at 100 uM incubated for 24 hrs by Western blot analysis
HeLa [3] = test: Effect on p70S6K phosphorylation in human HeLa cells at 100 uM incubated for 24 hrs by Western blot analysis
HeLa [4] = test: Induction of autophagy in human HeLa cells assessed as increase in LC3-II expression incubated for 24 hrs by Western blot analysis; settings: dose 1-30 µM
HeLa [5] = test: Induction of autophagic flux in human HeLa cells assessed as increase in LC3-II expression at 30 to 100 uM incubated for 24 hrs in presence of E64D by Western blot analysis; settings: dose 30-100 µM
HeLa [6] = test: Induction of autophagic flux in human HeLa cells assessed as increase in LC3-II expression at 30 to 100 uM incubated for 24 hrs in presence of pepA by Western blot analysis; settings: dose 30-100 µM
SH-SY5Y [7] = test: Induction of autophagic flux in human SH-SY5Y cells expressing GFP-LC3 assessed as increase in LC3 punctae co-localized with LAMP1 at 30 to 100 uM incubated for 24 hrs in presence of E64D; settings: dose 30-100 µM
SH-SY5Y [8] = test: Induction of autophagic flux in human SH-SY5Y cells expressing GFP-LC3 assessed as increase in LC3 punctae co-localized with LAMP1 at 30 to 100 uM incubated for 24 hrs in presence of pepA; settings: dose 30-100 µM
HeLa [9] = test: Effect on p70S6K phosphorylation in human HeLa cells at 1 to 30 uM incubated for 24 hrs by Western blot analysis; settings: dose 1-30 µM

| pIC50 (PANC-1) | pIC50 (HCT-116) | pIC50 (SK-MEL-28) | pIC50 (MCF7) | pIC50 (PC-3) | pIC50 (HT-1080) | pIC50 (HeLa [1]) | Structure (SMILES) | Activity (HeLa [2]) | Activity (HeLa [3]) | Activity (HeLa [4]) | Activity (HeLa [5]) | Activity (HeLa [6]) | Activity (SH-SY5Y [7]) | Activity (SH-SY5Y [8]) | Activity (HeLa [9]) |
| --- | --- | --- | --- | --- | --- | --- | --- | --- | --- | --- | --- | --- | --- | --- | --- |
| < 4.00 | < 4.00 | < 4.00 | < 4.00 | < 4.00 | < 4.00 | < 4.00 | NC1=CC(=O)O/C1=C/CO |  |  |  |  |  |  |  |  |
| 4.50 | 4.52 | 4.43 | 4.65 | 4.37 | 4.39 | 4.35 | CC(=O)NC1=CC(=O)O/C1=C/C(OC(C)=O)OC(C)=O | Active | inactive |  |  |  |  |  |  |
| < 4.00 | < 4.00 | < 4.00 | < 4.00 | < 4.00 | < 4.00 | < 4.00 | NC1=CC(=O)OC1CCO (stereo not given) |  |  |  |  |  |  |  |  |
| 4.79 | 4.57 | 4.91 | 4.41 | 4.66 | 4.34 | 4.56 | CC(=O)NC1=CC(=O)O/C1=C/C=O | Active | inactive |  |  |  |  |  |  |
| 5.28 | 5.27 | 5.23 | 5.10 | 5.01 | 4.94 | 4.81 | NC1=CC(=O)O/C1=C/C=O |  |  | Dose-Dependent Effect | Active | Active | Active | Active | inactive |
